SMILES strings stand for the structures. A value given as a limit tells only on which side of the number the result lay.

This assay concerns the target T1, recombinant murine Aurora A enzyme (Mus musculus, UniProt P97477).
T1 construct: hexahistidine (His6) (N); made in house; host or cells: insect cells (baculovirus, Bac-to-Bac)
T1 sequence (P97477 1-395): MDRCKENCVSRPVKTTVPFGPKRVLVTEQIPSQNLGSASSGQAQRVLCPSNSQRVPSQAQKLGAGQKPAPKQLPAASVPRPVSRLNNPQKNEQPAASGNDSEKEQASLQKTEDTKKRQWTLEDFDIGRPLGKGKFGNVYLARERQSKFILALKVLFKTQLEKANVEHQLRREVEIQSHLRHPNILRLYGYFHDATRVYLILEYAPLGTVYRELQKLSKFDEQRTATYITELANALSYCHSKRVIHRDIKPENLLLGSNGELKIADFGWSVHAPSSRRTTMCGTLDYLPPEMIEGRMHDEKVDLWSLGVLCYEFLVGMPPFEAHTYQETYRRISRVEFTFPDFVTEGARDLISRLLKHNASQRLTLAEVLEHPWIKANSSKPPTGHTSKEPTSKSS
The assay can be described thus: Aurora A DELFIA Kinase Assay. The class given is biochemical. The conditions noted are these: 1 mM ATP, 20 nM enzyme, 10 minutes at room temperature. The method, then:
Recombinant mouse Aurora A with an amino-terminus hexahistidine tag (His-Aurora A) was expressed using a standard baculovirus vector and insect cell expression system (Bac-to-Bac®, Invitrogen). Soluble, recombinant mouse Aurora A was purified from insect cells using Ni-NTA agarose (Qiagen) as described by the manufacturer and further purified over an S75 size exclusion column (Amersham Pharmacia Biotech). The mouse Aurora A enzymatic reaction totaled 25 μL and contained 25 mM Tris-HCl (pH 8.5), 2.5 mM MgCl2, 0.05% Surfact-AMPS-20, 5 mM Sodium Fluoride, 5 mM DTT, 1 mM ATP, 3 μM peptide substrate (Biotin-β-[…]), and 20 nM recombinant murine Aurora A enzyme. The enzymatic reaction mixture, with and without Aurora inhibitors, was incubated for 10 minutes at room temperature before termination with 100 μL of stop buffer (1% BSA, 0.05% Surfact-AMPS-20, and 100 mM EDTA). A total of 100 μL of the enzyme reaction mixture was transferred to wells of a Neutravidin-coated 96-well plate (Pierce) and incubated at room temperature for 30 minutes. The wells were washed with wash buffer (25 mM Tris, 150 mM sodium chloride, and 0.1% Tween 20) and incubated for 1 hour with 100 μL of antibody reaction mixture containing 1% BSA, 0.05% Surfact-AMPS-20, anti-phospho-PKA rabbit polyclonal antibody (1:2000, New England Biolabs), and europium labeled anti-rabbit IgG (1:2000, Perkin Elmer). The wells were washed and then the bound europium was liberated using 100 μL of Enhancement Solution (Perkin Elmer). Quantification of europium was done using a WallacTM EnVision (Perkin Elmer).
A word on the IC50: it is the point on the concentration scale where inhibition reaches its midpoint. For `CN1C(=O)Cc2cnc(Nc3ccc(C(=O)O)cc3)nc2-c2ccc(Cl)cc21` [Compound I-7, 4-(9-Chloro-7-methyl-6-oxo-6,7-dihydro-5H-benzo[b]pyrimido[4,5-d]azepin-2-ylamino)-benzoic acid], the IC50 was no more than 500 nM.

With `CCc1ccc2c(c1)NC(=O)Cc1cnc(Nc3ccc(OC)c(OC)c3)nc1-2` [Compound I-37, 2-(3,4-Dimethoxy-phenylamino)-9-ethyl-5H,7H-benzo[b]pyrimido[4,5-d]azepin-6-one], the IC50 is no more than 500 nM.

For `O=C1Cc2cnc(Nc3ccc(CCCN4CCCC4)cc3)nc2-c2ccc(Cl)cc2N1` [Compound I-66, 9-Chloro-2-[4-(3-pyrrolidin-1-yl-propyl)-phenylamino]-5H,7H-benzo[b]pyrimido[4,5-d]-azepin-6-one], the IC50 is no more than 500 nM.

For `NCCc1cccc(Nc2ncc3c(n2)-c2ccc(Cl)cc2NC(=O)C3)c1` [Compound I-86, 2-[3-(2-Amino-ethyl)-phenylamino]-9-chloro-5H,7H-benzo[b]pyrimido[4,5-d]azepin-6-one], the IC50 is no more than 500 nM.

As to `COc1ccc(Nc2ncc3c(n2)-c2ccc(Cl)cc2NC(=O)C3)cc1OC` [Compound I-2, 9-Chloro-2-(3,4-dimethoxy-phenylamino)-5H,7H-benzo[b]pyrimido[4,5-d]azepin-6-one], the concentration for half-maximal inhibition (IC50) is no more than 500 nM.

As to `COc1ccc(Nc2ncc3c(n2)-c2ccc(I)cc2NC(=O)C3)cc1OC` [Compound I-30, 2-(3,4-dimethoxy-phenylamino)-9-iodo-5H,7H-benzo[b]pyrimido[4,5-d]azepin-6-one], the IC50 was no more than 500 nM.

For the compound `NCCNC(=O)c1cccc(Nc2ncc3c(n2)-c2ccc(Cl)cc2NC(=O)C3)c1` [Compound I-62, N-(2-Amino-ethyl)-3-(9-chloro-6-oxo-6,7-dihydro-5H-benzo[b]pyrimido[4,5-d]azepin-2-ylamino)-benzamide], the IC50 is no more than 500 nM.

`O=C(O)c1ccc(Nc2ncc3c(n2)-c2ccc(Cl)cc2N(c2ccccc2)C(=O)C3)cc1` [Compound I-10, 4-(9-Chloro-6-oxo-7-phenyl-6,7-dihydro-5H-benzo[b]pyrimido[4,5-d]azepin-2-ylamino)-benzoic acid]: the half-maximal inhibitory concentration (IC50) was no more than 500 nM.

Consider `COc1ccc(Nc2ncc3c(n2)-c2ccc(C(=O)O)cc2NC(=O)C3)cc1OC` [Compound I-53, 2-(3,4-dimethoxy-phenylamino)-6-oxo-6,7-dihydro-5H-benzo[b]pyrimido[4,5-d]azepine-9-carboxylic acid], for which the 50% inhibitory concentration (IC50) is no more than 500 nM.

For the compound `COc1ccc(Nc2ncc3c(n2)-c2ccc(CCCN(C)C)cc2NC(=O)C3)cc1OC` [Compound I-88, 2-(3,4-Dimethoxy-phenylamino)-9-(3-dimethylamino-propyl)-5H,7H-benzo[b]pyrimido[4,5-d]azepin-6-one], the IC50 is no more than 500 nM.

With `COc1ccc(Nc2ncc3c(n2)-c2ccc(C(=O)NCCCCN)cc2NC(=O)C3)cc1OC` [Compound I-73, 2-(3,4-Dimethoxy-phenylamino)-6-oxo-6,7-dihydro-5H-benzo[b]pyrimido[4,5-d]azepine-9-carboxylic acid (4-amino-butyl)-amide], the IC50 is no more than 500 nM.

With `O=C1Cc2cnc(Nc3cccc(C#CCN4CCCC4)c3)nc2-c2ccc(Cl)cc2N1` [Compound I-89, 9-Chloro-2-[3-(3-pyrrolidin-1-yl-prop-1-ynyl)-phenylamino]-5H,7H-benzo[b]-pyrimido[4,5-d]azepin-6-one], the IC50 is no more than 500 nM.

Take `NCC#Cc1cccc(Nc2ncc3c(n2)-c2ccc(Cl)cc2NC(=O)C3)c1` [Compound I-67, 2-[3-(3-Amino-prop-1-ynyl)-phenylamino]-9-chloro-5H,7H-benzo[b]pyrimido[4,5-d]azepin-6-one]: the half-maximal inhibitory concentration (IC50) is no more than 500 nM.

For `COc1ccc(Nc2ncc3c(n2)-c2ccc(C#CCN4CCCC4)cc2NC(=O)C3)cc1OC` [Compound I-32, 2-(3,4-Dimethoxy-phenylamino)-9-(3-pyrrolidin-1-yl-prop-1-ynyl)-5H,7H benzo[b]pyrimido[4,5-d]azepin-6-one], the IC50 was no more than 500 nM.

On to `Cc1ccc2c(c1)NC(=O)Cc1cnc(Nc3ccc(C(=O)O)cc3)nc1-2` [Compound I-9, 4-(9-Methyl-6-oxo-6,7-dihydro-5H-benzo[b]pyrimido[4,5-d]azepin-2-ylamino)-benzoic acid], for which the half-inhibitory concentration (IC50) was no more than 500 nM.

As for `COc1ccc(Nc2ncc3c(n2)-c2cc(Br)ccc2NC(=O)C3)cc1OC` [Compound I-18, 10-Bromo-2-(3,4-dimethoxy-phenylamino)-5H,7H-benzo[b]pyrimido[4,5-d]azepin-6-one], the IC50 was no more than 5000 nM.

Turning to `O=C1Cc2cnc(Nc3ccc(C#CCN4CCCC4)cc3)nc2-c2ccc(Cl)cc2N1` [Compound I-47, 9-Chloro-2-[4-(3-pyrrolidin-1-yl-prop-1-ynyl)-phenylamino]-5H,7H-benzo[b]-pyrimido[4,5-d]azepin-6-one], the IC50 was no more than 500 nM.

As for `CCCc1ccc2c(c1)NC(=O)Cc1cnc(Nc3ccc(OC)c(OC)c3)nc1-2` [Compound I-82, 2-(3,4-Dimethoxy-phenylamino)-9-propyl-5H,7H-benzo[b]pyrimido[4,5-d]azepin-6-one], the concentration for half-maximal inhibition (IC50) was no more than 500 nM.

Take `COc1ccc(Nc2ncc3c(n2)-c2ccc(CCCN)cc2NC(=O)C3)cc1OC` [Compound I-50, 9-(3-Amino-propyl)-2-(3,4-dimethoxy-phenylamino)-5H,7H-benzo[b]pyrimido[4,5-d]azepin-6-one]: the IC50 is no more than 500 nM.

For the compound `COc1ccc(Nc2ncc3c(n2)-c2ccc(C#CCN(C)C)cc2NC(=O)C3)cc1OC` [Compound I-91, 2-(3,4-Dimethoxy-phenylamino)-9-(3-dimethylamino-prop-1-ynyl)-5H,7H-benzo[b]pyrimido[4,5-d]azepin-6-one], the IC50 was no more than 500 nM.

Take `COc1ccc(Nc2ncc3c(n2)-c2ccc(C(=O)NCCCN)cc2NC(=O)C3)cc1OC` [Compound I-72, 2-(3,4-Dimethoxy-phenylamino)-6-oxo-6,7-dihydro-5H-benzo[b]pyrimido[4,5-d]azepine-9-carboxylic acid (3-amino-propyl)-amide]: the IC50 was no more than 500 nM.

Take `COc1ccc(Nc2ncc3c(n2)-c2ccc(CCCN4CCCC4)cc2NC(=O)C3)cc1OC` [Compound I-49, 2-(3,4-Dimethoxy-phenylamino)-9-(3-pyrrolidin-1-yl-propyl)-5H,7H-benzo[b]-pyrimido[4,5-d]azepin-6-one]: the half-maximal inhibitory concentration (IC50) was no more than 500 nM.

For `COc1ccc(Nc2ncc3c(n2)-c2ccc(C#CCN)cc2NC(=O)C3)cc1OC` [Compound I-38, 9-(3-Amino-prop-1-ynyl)-2-(3,4-dimethoxy-phenylamino)-5H,7H-benzo[b]pyrimido[4,5-d]azepin-6-one], the IC50 is no more than 500 nM.

As for `C#Cc1ccc2c(c1)NC(=O)Cc1cnc(Nc3ccc(OC)c(OC)c3)nc1-2` [Compound I-33, 2-(3,4-dimethoxy-phenylamino)-9-ethynyl-5H,7H-benzo[b]pyrimido[4,5-d]azepin-6-one], the 50% inhibitory concentration (IC50) is no more than 500 nM.

Consider `COc1ccc(Nc2ncc3c(n2)-c2ccccc2NC(=O)C3)cc1OC` [Compound I-27, 2-(3,4-Dimethoxy-phenylamino)-5H,7H-benzo[b]pyrimido[4,5-d]azepin-6-one], for which the IC50 is no more than 500 nM.

Regarding `COc1ccc(Nc2ncc3c(n2)-c2ccc(C(=O)NCCN)cc2NC(=O)C3)cc1OC` [Compound I-71, 2-(3,4-Dimethoxy-phenylamino)-6-oxo-6,7-dihydro-5H-benzo[b]pyrimido[4,5-d]azepine-9-carboxylic acid (2-amino-ethyl)-amide], the IC50 was no more than 500 nM.

In the case of `COc1ccc(Nc2ncc3c(n2)-c2ccc(C(N)=O)cc2NC(=O)C3)cc1OC` [Compound I-70, 2-(3,4-dimethoxy-phenylamino)-6-oxo-6,7-dihydro-5H-benzo[b]pyrimido[4,5-d]azepine-9-carboxylic acid amide], the IC50 is no more than 500 nM.

For `CNCCCc1ccc2c(c1)NC(=O)Cc1cnc(Nc3ccc(OC)c(OC)c3)nc1-2` [Compound I-87, 2-(3,4-Dimethoxy-phenylamino)-9-(3-methylamino-propyl)-5H,7H-benzo[b]pyrimido[4,5-d]azepin-6-one], the IC50 is no more than 500 nM.

On to `NCCCCNC(=O)c1cccc(Nc2ncc3c(n2)-c2ccc(Cl)cc2NC(=O)C3)c1` [Compound I-64, N-(4-Amino-butyl)-3-(9-chloro-6-oxo-6,7-dihydro-5H-benzo[b]pyrimido[4,5-d]azepin-2-ylamino)-benzamide], for which the IC50 is no more than 500 nM.

On to `COc1ccc(Nc2ncc3c(n2)-c2ccc(C)cc2NC(=O)C3)cc1OC` [Compound I-42, 2-(3,4-Dimethoxy-phenylamino)-9-methyl-5H,7H-benzo[b]pyrimido[4,5-d]azepin-6-one], for which the concentration for half-maximal inhibition (IC50) was no more than 500 nM.

The values above are taken from patent publication US7935694B2, “Lactam compounds useful as protein kinase inhibitors” (Millennium Pharmaceuticals, Inc., priority 2004, dated 2011).
